The record followed here is patent publication US9938262B2, “Benzamides” (Merck Patent GmbH, priority 2011, dated 2018).

SMILES strings stand for the structures.

One assay deals with T1, FSHR (Homo sapiens, UniProt P23945).
T1 construct: expressed in transfected cells; host or cells: CHO (Cho-FSHR-LUC-1-1-43)
T1 sequence (P23945 18-695): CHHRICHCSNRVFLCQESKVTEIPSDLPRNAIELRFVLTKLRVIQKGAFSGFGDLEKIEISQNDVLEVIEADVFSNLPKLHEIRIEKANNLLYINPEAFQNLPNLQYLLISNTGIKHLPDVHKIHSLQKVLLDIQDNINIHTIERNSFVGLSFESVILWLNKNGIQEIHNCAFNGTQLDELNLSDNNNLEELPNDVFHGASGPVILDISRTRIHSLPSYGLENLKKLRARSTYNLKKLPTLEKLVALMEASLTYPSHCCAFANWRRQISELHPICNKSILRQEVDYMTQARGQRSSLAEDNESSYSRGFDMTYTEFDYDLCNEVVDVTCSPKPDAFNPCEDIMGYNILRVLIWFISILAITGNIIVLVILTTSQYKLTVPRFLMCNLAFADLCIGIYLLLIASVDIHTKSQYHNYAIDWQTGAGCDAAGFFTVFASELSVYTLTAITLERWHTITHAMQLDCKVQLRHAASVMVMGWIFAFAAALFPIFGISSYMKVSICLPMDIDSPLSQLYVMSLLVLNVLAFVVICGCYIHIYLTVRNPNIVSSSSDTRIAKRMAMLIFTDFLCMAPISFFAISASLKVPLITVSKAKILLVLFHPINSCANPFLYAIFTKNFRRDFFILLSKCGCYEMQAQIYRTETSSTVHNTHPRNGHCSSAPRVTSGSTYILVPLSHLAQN
T1 sequence (P01215 25-116 partner): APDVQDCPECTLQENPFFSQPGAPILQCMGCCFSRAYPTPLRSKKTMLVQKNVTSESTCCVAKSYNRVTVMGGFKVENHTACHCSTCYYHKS
T1 sequence (P01225 19-129 partner): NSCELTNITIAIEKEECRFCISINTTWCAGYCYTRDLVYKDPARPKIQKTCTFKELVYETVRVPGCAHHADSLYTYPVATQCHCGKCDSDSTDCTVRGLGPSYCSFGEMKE
Kind of assay: EC50 of cyclic AMP production in CHO FSHR cells + EC20 FSH (Assay A). In kind it is cell-based. The conditions noted are these: 1 h; 5 μM; effect relative to maximum response of the FSH standard; Table 1. The method, then: Example 10: EC50 of Cyclic AMP Production in CHO FSHR Cells+EC20 FSH (Assay A)
2500 Cho-FSHR-LUC-1-1-43 cells were plated per well in 5 μl of phenol red free DMEM/F12+1% FBS. Cells were plated in 384 well, solid white low volume plates (Greiner 784075) by Multidrop. Cells were assayed by adding 100 μl of 2×EC20 FSH/IBMX in DMEM/F12+0.1% BSA) by Multidrop to 2 μl of test compound stamped in 384 well plates (compounds are diluted 1:50). The final FSH concentration was […], and the final IBMX concentration was 200 μM. The compound plate map was as follows: Column 1: 2 μl of DMSO; Column 2: 2 μl of DMSO; Columns 3-12 and 13-24: 2 μl of test compound, diluted 1:4 in 100% DMSO, or 2 μl of FSH, diluted 1:4 in DMEM/F12+0.1% BSA. The starting concentration for FSH was 50 nM (final concentration was 0.5 nM). […] 5 μl of compound+EC20 FSH mixture were transferred to cell plates (1:2 dilution into 5 μl of cell media) The plates were incubated at 37° C. for 1 h. 10 μl of mixed HTRF (CisBio #62AM4PEC) reagents were added per well and incubated at room temperature for 1 h. The plates were read on Envision using the cAMP HTRF—low volume 384 well protocol. The readout was the calculated fluorescence ratio (665 nm/620 nm). Values given in percent (%) indicate the percental effect (response) at a certain concentration of agonist relative to the maximum response of the FSH standard.
As for `Cc1ccccc1N1CCN(c2ccc(C(=O)NCCN(C)C(=O)OC(C)(C)C)cc2NC(=O)c2ccco2)CC1` [Compound 64, {2-[3-[(Furan-2-carbonyl)-amino]-4-(4-o-tolyl-piperazin-1-yl)-benzoylamino]-ethyl}-methyl-carbamic acid tert-butyl ester], the activation at 5 µM was determined as 72%.
For `Cc1ccccc1N1CCN(c2ccc(C(=O)NCCCN3CCCC3=O)cc2NC(=O)c2conc2C)CC1` [Compound 80], the activation at 5 µM came out at 22%.
`CCc1onc(C)c1C(=O)Nc1cc(C(=O)NCCCN2CCCC2=O)ccc1N1CCN(c2ccccc2C)CC1` [Compound 81]: the activation at 5 µM worked out at 11%.

The assay is the same for the next values; noted with them: 1 h; 5 μM; effect relative to maximum response of the FSH standard; Table 2.
On to `Cc1ccc(C(=O)Nc2cc(C(=O)NCCCN3CCCC3=O)ccc2N2CCN(c3ccccc3N)CC2)o1` [Compound 272], for which the activation at 5 µM was 30%.
As for `Cc1ccccc1N1CCN(c2ccc(C(=O)NCCCN3CCCC3=O)cc2NC(=O)c2cc(C3CC3)nn2C)CC1` [Compound 315], the activation at 5 µM was 47%.

The same assay, now with this note: CHO FSHR cells + EC20 FSH; Table 1; read-out: Assay A EC50 of cyclic AMP production.
As to `Cc1ccc(C(=O)Nc2cc(C(=O)NCCCN3CCCC3=O)ccc2N2CCN(c3ccccc3F)CC2)o1` [Compound 130, 5-Methyl-furan-2-carboxylic acid {2-[4-(2-fluoro-phenyl)-piperazin-1-yl]-5-[3-(2-oxo-pyrrolidin-1-yl)-propylcarbamoyl]-phenyl}-amide], the EC50 is 1000 to 10000 nM.
For `Cc1ccccc1N1CCN(c2ccc(C(=O)NCCCN3CCCC3=O)cc2NC(=O)c2ccc(C#N)cc2)CC1` [Compound 33], the concentration giving a half-maximal response (EC50) fell in the range of 1000 to 10000 nM.
Turning to `Cc1ccccc1N1CCN(c2ccc(C(=O)NCCCN3CCCC3=O)cc2NC(=O)CC(C)C)CC1` [Compound 26], the EC50 lay in the range of 1000 to 10000 nM.
Same read-out and setting: the same measure for `Cc1ccccc1N1CCN(c2ccc(C(=O)NCC3(CN4CCCC4)CC3)cc2NC(=O)c2ccco2)CC1` [Compound 154]: 1000 to 10000 nM; for `Cc1ccccc1N1CCN(c2ccc(C(=O)NCCCN3CCCC3=O)cc2NC(=O)c2cccc(Cl)c2)CC1` [Compound 28]: 1000 to 10000 nM; for `CCOc1cc(CCNC(=O)c2ccc(N3CCN(c4ccccc4C)CC3)c(NC(=O)c3ccco3)c2)ccc1OC` [Compound 65]: 1000 to 10000 nM.
The same measure, in the same setting: the same measure for `Cc1ccccc1N1CCN(c2ccc(C(=O)NCCCN3CCCC3=O)cc2NC(=O)c2sc(Cl)nc2C)CC1` [Compound 201]: over 10000 nM.
As to `COc1cc(CNC(=O)c2ccc(N3CCN(c4ccccc4C)CC3)c(NC(=O)c3ccco3)c2)cc(OC)c1` [Compound 95, Furan-2-carboxylic acid [5-(3,5-dimethoxy-benzylcarbamoyl)-2-(4-o-tolyl-piperazin-1-yl)-phenyl]-amide], the EC50 was in the range of 100 to 1000 nM.
For the compound `Cc1ccccc1N1CCN(c2ccc(C(=O)NCCCN3CCCC3=O)cc2NC(=O)c2cnc(Br)s2)CC1` [Compound 25], the 50% effective concentration (EC50) fell in the range of 1000 to 10000 nM.
Same read-out and setting: with `Cc1ccccc1N1CCN(c2ccc(C(=O)N[C@@H]3CCCNC3)cc2NC(=O)c2ccco2)CC1` [Compound 22] the figure was 1000 to 10000 nM; with `Cc1ccccc1N1CCN(c2ccc(C(=O)NCCCN3CCCC3=O)cc2NC(=O)c2cccs2)CC1` [Compound 20], 100 to 1000 nM; with `COc1ccc(C(=O)Nc2cc(C(=O)NCCCN3CCCC3=O)ccc2N2CCN(c3ccccc3C)CC2)nc1` [Compound 221], 100 to 1000 nM.
`Cc1ccccc1N1CCN(c2ccc(C(=O)NCCCN3CCCC3=O)cc2NC(=O)c2csc(Br)n2)CC1` [Compound 101]: the EC50 fell in the range of 1000 to 10000 nM.
On to `CCC(C)(C)C(=O)N(C)CCNC(=O)c1ccc(N2CCN(c3ccccc3C)CC2)c(NC(=O)c2ccco2)c1` [Compound 133, Furan-2-carboxylic acid [5-{2-[(2,2-dimethyl-butyryl)-methyl-amino]-ethylcarbamoyl}-2-(4-o-tolyl-piperazin-1-yl)-phenyl]-amide], for which the EC50 was in the range of 100 to 1000 nM.

The same assay, now with this note: CHO FSHR cells + EC20 FSH; Table 2; read-out: Assay A EC50 of cyclic AMP production.
On to `CNCc1cccc(CNC(=O)c2ccc(N3CCN(c4ccccc4C)CC3)c(NC(=O)c3ccco3)c2)c1` [Compound 323], for which the EC50 lay in the range of 100 to 1000 nM.
In the case of `Cc1ccccc1N1CCN(c2ccc(C(=O)N[C@@H]3C[C@H](CO)[C@@H](O)[C@H]3O)cc2NC(=O)c2coc(C3CC3)n2)CC1` [Compound 551], the EC50 was under 100 nM.
On the same count and under the same terms, the same measure for `Cc1ccccc1N1CCN(c2ccc(C(=O)NCCc3ccccc3C(N)=O)cc2NC(=O)c2coc(C3CC3)n2)CC1` [Compound 411]: 100 to 1000 nM.
`CCCNC(=O)NCCCNC(=O)c1ccc(N2CCN(c3ccccc3C)CC2)c(NC(=O)c2coc(C3CC3)n2)c1` [Compound 433]: the 50% effective concentration (EC50) lay in the range of 100 to 1000 nM.
Consider `Cc1ccccc1N1CCN(c2ccc(C(=O)NCCCNC(=O)NC(C)C)cc2NC(=O)c2ccco2)CC1` [Compound 495], for which the concentration giving a half-maximal response (EC50) lay within 100 to 1000 nM.
On the same count and under the same terms, the same measure for `Cc1ccccc1N1CCN(c2ccc(C(=O)NCc3cccc(CN(C)C(=O)OC(C)(C)C)c3)cc2NC(=O)c2ccco2)CC1` [Compound 326]: over 10000 nM; for `Cc1ccccc1N1CCN(c2ccc(C(=O)NCCCCN3CCOCC3)cc2NC(=O)c2coc(C3CC3)n2)CC1` [Compound 472]: 100 to 1000 nM.
Consider `Cc1ccccc1N1CCN(c2ccc(C(=O)NCCCc3scnc3C)cc2NC(=O)c2coc(C3CC3)n2)CC1` [Compound 391], for which the concentration giving a half-maximal response (EC50) lay within 100 to 1000 nM.
Same read-out and setting: with `COc1cncc(N2CCN(c3ccc(C(=O)NCCCN4CCCC4=O)cc3NC(=O)c3coc(C4CC4)n3)CC2)c1` [Compound 599] the figure was over 10000 nM.
Consider `O=C(NCCCN1CCCC1=O)c1ccc(N2CCN(c3nccs3)CC2)c(NC(=O)c2coc(C3CC3)n2)c1` [Compound 505], for which the half-maximal effective concentration (EC50) was 1000 to 10000 nM.
Same read-out and setting: the same measure for `Cc1cncnc1N1CCN(c2ccc(C(=O)NCCCN3CCCC3=O)cc2NC(=O)c2coc(C3CC3)n2)CC1` [Compound 413]: 1000 to 10000 nM.
As to `Cc1ccc(C(=O)Nc2cc(C(=O)NCCCN3CCCC3=O)ccc2N2CCN(c3ccccc3OC(F)(F)F)CC2)o1` [Compound 404], the 50% effective concentration (EC50) lay in the range of 1000 to 10000 nM.
With `Cc1ccccc1N1CCN(c2ccc(C(=O)NCCCN3C(=O)[C@@H]4CC[C@H]3C4)cc2NC(=O)c2coc(C3CC3)n2)CC1` [Compound 353], the EC50 fell in the range of 100 to 1000 nM.
On to `O=C(NCCCN1CCCC1=O)c1ccc(N2CCN(c3ccccc3OC(F)(F)F)CC2)c(NC(=O)c2coc(C3CC3)n2)c1` [Compound 403], for which the EC50 lay in the range of 1000 to 10000 nM.
Consider `Cc1ccccc1N1CCN(c2ccc(C(=O)NCCCN3CCOCC3)cc2NC(=O)c2coc(C3CC3)n2)CC1` [Compound 406], for which the 50% effective concentration (EC50) lay in the range of 100 to 1000 nM.
As to `Cc1ccccc1N1CCN(c2ccc(C(=O)NCc3cccc(CN(C)C)c3)cc2NS(C)(=O)=O)CC1` [Compound 563], the EC50 was over 10000 nM.
For the compound `Cc1ccccc1N1CCN(c2ccc(C(=O)NCCCN3C(=O)[C@@H]4C=C[C@H]3C4)cc2NC(=O)c2coc(C3CC3)n2)CC1` [Compound 352], the concentration for a half-maximal effect (EC50) was in the range of 100 to 1000 nM.
Turning to `Cc1ccccc1N1CCN(c2ccc(C(=O)NC[C@H](O)[C@@H](O)CN)cc2NC(=O)c2coc(C3CC3)n2)CC1` [Compound 561], the half-maximal effective concentration (EC50) was 1000 to 10000 nM.
On to `Cc1ccc(CNc2cc(C(=O)NCc3cccc(CN(C)C)c3)ccc2N2CCN(c3ccccc3C)CC2)o1` [Compound 573], for which the EC50 fell in the range of 1000 to 10000 nM.
`Cc1ccccc1N1CCN(c2ccc(C(=O)NCCCn3ccnc3)cc2NC(=O)c2coc(C3CC3)n2)CC1` [Compound 291]: the EC50 was 100 to 1000 nM.
As for `Cc1ccccc1N1CCN(c2ccc(C(=O)N[C@H]3O[C@@H](CO)[C@@H]4OC(C)(C)O[C@@H]43)cc2NC(=O)c2coc(C3CC3)n2)CC1` [Compound 309], the EC50 lay in the range of 100 to 1000 nM.
With `Cc1noc(CCCNC(=O)c2ccc(N3CCN(c4ccccc4C)CC3)c(NC(=O)c3coc(C4CC4)n3)c2)n1` [Compound 438], the EC50 was in the range of 100 to 1000 nM.
The same measure, in the same setting: with `Cc1ccc(C(=O)Nc2cc(C(=O)NCCCN3CCCC3=O)ccc2N2CCN(c3ccccc3C#N)CC2)o1` [Compound 522] the figure was 1000 to 10000 nM; with `Cc1ccccc1N1CCN(c2ccc(C(=O)NCc3cccc(CN(C)C)n3)cc2NC(=O)c2coc(C3CC3)n2)CC1` [Compound 465], 100 to 1000 nM.
With `N#Cc1nccnc1N1CCN(c2ccc(C(=O)NCCCN3CCCC3=O)cc2NC(=O)c2coc(C3CC3)n2)CC1` [Compound 595], the EC50 fell in the range of 1000 to 10000 nM.
Consider `Cc1ccccc1N1CCN(c2ccc(C(=O)NCC(O)CN3CCCC3=O)cc2NC(=O)c2ccco2)CC1` (stereo not shown) [Compound 467], for which the half-maximal effective concentration (EC50) is under 100 nM.
Regarding `Cc1ccccc1N1CCN(c2ccc(C(=O)NCCCN3CCCC3=O)cc2NC(=O)c2coc(C3CC3)n2)CC1=O` [Compound 605], the concentration for a half-maximal effect (EC50) was in the range of 1000 to 10000 nM.
`Cc1ccccc1C1=CCN(c2ccc(C(=O)NCCCN3CCCC3=O)cc2NC(=O)c2coc(C3CC3)n2)CC1` [Compound 414]: the EC50 lay in the range of 100 to 1000 nM.
For the compound `Cc1ccccc1N1CCN(c2ccc(C(=O)NCCCN3CCCC3=O)cc2NC(=O)c2ccc(C3CC3)o2)CC1` [Compound 449], the 50% effective concentration (EC50) lay within 100 to 1000 nM.
In the case of `O=C(NCCCN1CCCC1=O)c1ccc(N2CCN(c3cccnc3)CC2)c(NC(=O)c2coc(C3CC3)n2)c1` [Compound 555], the EC50 was in the range of 1000 to 10000 nM.

By EC50 is commonly meant the concentration at which the effect is half-maximal.
